Non-standard residues stand in square brackets, D forms with d. Residues, ends and D or L forms follow the SMILES beside them. *: point of attachment. PEG8 = NCCOCCOCCOCCOCCOCCOCCOCCOCCC(=O)O; Palmitoyl = CCCCCCCCCCCCCCCC(=O)*; Tic = O=C(O)[C@@H]1Cc2ccccc2CN1
How the values were obtained:
human CMKLR1 [1] = biological target: T1, human CMKLR1 (Homo sapiens, UniProt Q99788); assay: SRE-luciferase reporter gene assay in transfected HEK293 cells; settings: pEC50, Human CMKLR1, no wash; mean ± S.E.M.
T1 sequence (Q99788 1-373): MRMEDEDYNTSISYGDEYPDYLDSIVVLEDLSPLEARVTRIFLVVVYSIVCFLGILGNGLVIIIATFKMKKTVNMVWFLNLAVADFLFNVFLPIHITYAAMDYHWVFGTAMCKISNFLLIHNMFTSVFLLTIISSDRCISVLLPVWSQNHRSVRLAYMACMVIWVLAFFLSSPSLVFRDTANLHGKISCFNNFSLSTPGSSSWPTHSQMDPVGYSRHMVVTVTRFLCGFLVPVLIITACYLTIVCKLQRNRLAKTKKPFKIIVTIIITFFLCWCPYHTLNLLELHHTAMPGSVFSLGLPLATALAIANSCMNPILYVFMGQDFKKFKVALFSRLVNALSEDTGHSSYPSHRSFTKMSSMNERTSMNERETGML
Description: (§1) Receptor-mediated signaling was assessed as previously described. Briefly, HEK293 cells were plated at a density of 6,000 cells/well into 96-well clear-bottom plates and grown to ˜80% confluence. […] Expression of Gq5i66V directs signaling of the Gαi-coupled chemerin receptor to stimulation of a Gαq-dependent SRE5x-Luc-PEST reporter gene. For experiments investigating the agonist function of soluble and lipidated peptides, tethered ligand cDNA was not included in the transfection mixture. Twenty four hours after transfection, cells were stimulated with or without peptide agonist for 4 hours in serum-free medium. […] Following ligand stimulation, the media was aspirated and luciferase activity measured using SteadyLite reagent and quantified using a TopCount NTX. A β-galactosidase assay was then performed following assessment of luminescence. Cleavage of 2-nitrophenyl β-D-galactopyranoside substrate was quantified after incubation of cell lysates at 37° C. for 30 to 60 minutes by measuring the optical density at 420 nm on a SpectraMax microplate reader. Luciferase reporter gene activities were normalized to corresponding β-galactosidase activity controls.
(§2) HEK293 cells were transiently transfected with cDNAs encoding i) human or mouse CMKLR1, ii) a SRE5x-Luc reporter gene, iii) a Gαq5i66V chimera, and iv) a β-galactosidase control. Twenty-four hours after transfection, cells were stimulated with ligand for 4 hours and luciferase activity determined as described in Experimental Procedures. Luciferase activity was normalized relative to the maximal value observed using saturating concentrations of the corresponding soluble ligand (=100%). […] As a next step, the effect of membrane anchoring on chemerin activity was examined. […] HEK293 cells were transiently transfected with cDNAs encoding i) various tethered ligands, ii) human or mouse CMKLR1, iii) a SRE5x-Luc reporter gene, iv) aGαq5i66V chimera, and v) a β-galactosidase control. Twenty-four hours after transfection, luciferase activity was determined as described in Experimental Procedures.
(§3) HEK293 cells were transiently transfected with cDNAs encoding i) 8 ng of various tethered ligands, ii) human or mouse CMKLR1, iii) a SRE5x-Luc reporter gene, iv) a Gαq5i66V chimera, and v) a β-galactosidase control. Twenty-four hours after transfection, luciferase activity was determined as described in Experimental Procedures.

Adult CD1 mice = assay: Chronic constriction injury neuropathic pain model, von Frey and acetone tests; type: in vivo, mouse; settings: intrathecal 100 pmol, 1 week after nerve injury
Description: Intrathecal injection of 1-stable chem (100 pmol), 1 week after CCI, reduces CCI-induced mechanical hypersensitivity (panels A+C) and cold allodynia (panel E). Intrathecal injection of ResolvinE1 (RvE1)(100 pmol), 1 week after CCI, reduces CCI-induced mechanical hypersensitivity (panels B+D) and cold allodynia (panel F). BL=baseline before surgery.
Adult CD1 mice (male, 25-35 g) were used for behavioral studies. Mice were group-housed and kept under a 12-hour light/dark cycle. […]
Nerve injury-induced mechanical allodynia and hypersensitivity were assessed by von Frey hairs as previously described (see Xu et al., Resolvin E1 inhibits neuropathic pain and spinal cord microglial activation following peripheral nerve injury, 2013, J. Neuroimmune Pharmacol, 8: 37-41). […] The 50% paw withdrawal threshold (PWT) was determined using Dixon's up-down method. For paw withdrawal frequency (PWF), the same von Frey hair (0.16 g) was applied 10 times and the number of positive responses to the stimulations counted. A positive response was scored if the mouse sharply withdrew the paw or flinched upon removal of the stimulus. […] In brief, a drop of acetone was placed against the plantar paw of the mouse and the mouse's response monitored for the next 20 seconds. […]

human CMKLR1 [2] = biological target: T1, human CMKLR1; assay: Washout experiments (serial washes after 15 min ligand, luciferase readout)
Description: (§4) Agonist activity was compared with and without serial washings shortly after addition of ligand. Briefly, HEK293 cells were plated and transfected as described above with the addition of a poly-L-lysine plate pretreatment step to enhance cell adhesion. Twenty-four hours after transfection, cells were stimulated with increasing concentrations of agonist for 15 minutes at 37° C. Selected wells were washed three times with serum-free media. Plates were then incubated for an additional 4 hours. Receptor mediated signaling was assessed using a luciferase based assay as described above.
(§5) HEK293 cells were transiently transfected with cDNAs encoding i) human or mouse CMKLR1, ii) a SRE5x-Luc reporter gene, iii) a Gαq5i66V chimera, and iv) a β-galactosidase control. Twenty-four hours after transfection, cells were stimulated with increasing concentrations of various ligands for 15 minutes. Selected wells were then washed three times with serum-free media and plates were further incubated for 4 hours.

[3] = system: HEK293 cells transfected with vector control (pcDNA1.1); assay: Luciferase reporter assay in cells transfected with vector control; type: cell-based, human; settings: cells transfected with pcDNA1.1 vector control
Description: as §1

mouse CMKLR1 [4] = biological target: T2, mouse CMKLR1 (Mus musculus, UniProt P97468); assay: Washout experiments (serial washes after 15 min ligand, luciferase readout)
T2 sequence (P97468 1-371): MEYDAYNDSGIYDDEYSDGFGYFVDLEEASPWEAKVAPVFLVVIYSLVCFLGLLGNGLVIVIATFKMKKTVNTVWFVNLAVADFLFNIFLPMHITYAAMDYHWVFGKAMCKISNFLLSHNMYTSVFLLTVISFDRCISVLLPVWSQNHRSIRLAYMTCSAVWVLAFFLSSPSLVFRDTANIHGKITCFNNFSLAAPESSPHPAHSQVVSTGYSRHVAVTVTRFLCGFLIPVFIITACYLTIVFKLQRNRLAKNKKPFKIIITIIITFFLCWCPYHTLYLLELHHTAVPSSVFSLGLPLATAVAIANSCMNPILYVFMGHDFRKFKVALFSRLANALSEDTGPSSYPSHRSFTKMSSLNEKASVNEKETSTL
Description: as §4, §5

Male FVB mice = assay: Ovalbumin sensitization and aerosol challenge model of allergic airway inflammation; type: in vivo, mouse; settings: Day 18
Description: Representative photographs are taken at 20× magnification. (C) Lung tissue sections at Day 18 were obtained from fixed, paraffin-embedded lung tissue stained with hematoxylin and eosin. Representative photographs are taken at both 20× and 40×. (D) Total BALF cells and leukocyte subsets were quantified on Day 18 and compared between mice receiving DMSO or l-Stable Chem. Data are representative of the mean±S.E.M. from n=3-8 mice per group. Comparison of DMSO control to l-Stable Chem: *p<0.05.
Male FVB mice age 5-7 weeks (Charles River Laboratories) were housed under viral antibody-free conditions. Ovalbumin (OVA) sensitization and drug administration were performed as previously described with slight modifications. Briefly, mice were sensitized with intraperitoneal injection of 10 μg OVA (Grade III: Sigma) on days 0 and 7. On days 14, 15, 16, and 17, mice received a 25 minute aerosol challenge of 6% (wt/vol) OVA each day. On each of these days, 30 min prior to OVA challenge, mice were given 20 μL of lipidated stable chemerin (21 mM stock in DMSO diluted 1:100 in saline for a final concentration of 210 μM) by the intranasal route. Corresponding controls received DMSO diluted 1:100 in saline. On day 18 or 22, bronchoalveolar lavage fluid (BALF) was collected; animals were sacrificed for histological assessment. […] Cells in BALF were resuspended in PBS and counted with a hemocytometer; cytospins were done via cytocentrifugation (265 g; StatSpin). Cells from the cytospin were stained with Wright-Giemsa stain (Sigma) for quantification of leukocyte subsets. At least 200 cells were counted per slide. […] On the 5th day (corresponding to day 18), mice were sacrificed and BALF collected and analyzed as described above.
Given the high potency, stability, and wash resistance of the lipidated stable chemerin analog, the anti-inflammatory activity of this compound in vivo was examined. […] Markers of inflammation were assessed at day 18 (time course: FIG. 6A).

mouse CMKLR1 [5] = biological target: T2, mouse CMKLR1; assay: SRE-luciferase reporter gene assay in transfected HEK293 cells
Description: as §1, §2, §3

[6] = three washes after 15 min ligand

- EC50 (human CMKLR1 [1]): 2.57 nM
- EC50 (human CMKLR1 [2]; pEC50, Human CMKLR1, + wash, washed three times after 15 min ligand, then 4 hours): 25.1 nM
- Agonist activity after serial washes, human CMKLR1 (human CMKLR1 [2]; [6]): persisted despite washing
- EC50 (mouse CMKLR1 [4]; pEC50, Mouse CMKLR1, + wash, washed three times after 15 min ligand, then 4 hours): 11 nM
- Agonist activity after serial washes, mouse CMKLR1 (mouse CMKLR1 [4]; [6]): persisted despite washing
- EC50 (mouse CMKLR1 [5]; EC50 (nM), Mouse CMKLR1, no wash, HEK293 luciferase reporter): 2 nM
- EC50 (mouse CMKLR1 [5]; pEC50, Mouse CMKLR1, no wash, mean ± S.E.M.): 2 nM
Compound: CCCCCCCCCCCCCCCC(=O)NCCOCCOCCOCCOCCOCCOCCOCCOCCC(=O)NCC(=O)NCC(=O)N[C@H](Cc1ccc(O)cc1)C(=O)N[C@@H](Cc1ccccc1)C(=O)N[C@@H](CC(C)C)C(=O)N1CCC[C@H]1C(=O)N[C@H](CO)C(=O)N[C@@H](CCC(N)=O)C(=O)N[C@@H](Cc1ccccc1)C(=O)N[C@H](C)C(=O)N1Cc2ccccc2C[C@H]1C(=O)N[C@@H](CO)C(=O)O [I-Stable Chem] ({Palmitoyl-PEG8}-GG[dY]FLP[dS]QF[dA][Tic]S-OH)
- Duration of significant reduction of established mechanical and cold allodynia (Adult CD1 mice): greater than 24 hours
- Agonist activity without CMKLR1 expression [3]: no agonist activity
- Lung inflammatory response (H+E staining) (Male FVB mice; in comparison to DMSO controls): Less leukocyte infiltration and fewer reactive bronchial epithelial cells
- Number of eosinophils in bronchoalveolar lavage fluid (Male FVB mice; intranasal, 30 min prior to OVA challenge, versus DMSO): decreased
- Airway epithelial mucus (PAS staining) (Male FVB mice; versus DMSO control): most pronounced attenuation of mucus metaplasia
